Measurements reported in PMC2659609 (Molecular cancer therapeutics, 2008).

How the values were obtained:
thrombin = thrombin (Bos taurus, UniProt P00735); experiment: Thrombin activity assay, chromogenic substrate pyroGlu-Pro-Arg-pNA, kinetic; format: biochemical
[1] = system: human hepatoma cell line HepG2; experiment: General cell cytotoxicity assay; format: cell-based; conditions: 20μM, 72 hours, media and compounds replaced every 24 hours
[2] = target: full-length wild-type mouse hepsin expressed in HEK 293FT cells (Mus musculus, UniProt O35453); experiment: Hepsin-dependent pericellular serine proteolytic activity assay; format: cell-based
full-length wild-type mouse hepsin expressed in HEK 293FT cells, sequence (O35453 1-416 isoform O35453-2): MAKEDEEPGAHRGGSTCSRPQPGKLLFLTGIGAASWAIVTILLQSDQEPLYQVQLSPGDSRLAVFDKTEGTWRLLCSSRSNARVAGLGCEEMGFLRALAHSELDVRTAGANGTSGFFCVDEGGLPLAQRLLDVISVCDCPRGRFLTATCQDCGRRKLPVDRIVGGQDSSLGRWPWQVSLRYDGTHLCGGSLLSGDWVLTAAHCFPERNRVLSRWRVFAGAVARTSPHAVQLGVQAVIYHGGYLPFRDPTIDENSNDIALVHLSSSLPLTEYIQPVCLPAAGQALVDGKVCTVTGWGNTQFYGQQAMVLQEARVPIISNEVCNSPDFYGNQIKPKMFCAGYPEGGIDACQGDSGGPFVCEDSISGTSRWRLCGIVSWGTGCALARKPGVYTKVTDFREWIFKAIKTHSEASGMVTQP

[3] = approximate; cited from earlier work
[4] = system: human prostate cancer cell line LNCaP; experiment: General cell cytotoxicity assay; format: cell-based; conditions: 20μM, 72 hours, media and compounds replaced every 24 hours
[5] = system: mouse prostate epithelial cell line MP-1; experiment: General cell cytotoxicity assay; format: cell-based; conditions: 20μM, 72 hours, media and compounds replaced every 24 hours
HEK 293FT cells = experiment: Toxicity to HEK 293FT cells under pericellular assay conditions; format: cell-based; conditions: 24-hour treatment
trypsin = trypsin (Sus scrofa, UniProt P00761); experiment: Trypsin activity assay, chromogenic substrate pyroGlu-Pro-Arg-pNA, kinetic; format: biochemical
trypsin, sequence (P00761 9-231): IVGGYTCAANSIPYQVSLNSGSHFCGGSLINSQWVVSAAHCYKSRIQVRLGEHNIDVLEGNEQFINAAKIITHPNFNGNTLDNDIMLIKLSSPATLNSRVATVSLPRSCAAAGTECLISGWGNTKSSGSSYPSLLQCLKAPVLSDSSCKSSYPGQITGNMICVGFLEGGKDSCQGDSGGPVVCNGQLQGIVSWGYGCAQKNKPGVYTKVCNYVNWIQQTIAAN

[6] = target: purified recombinant human hepsin (Homo sapiens, UniProt P05981); experiment: Hepsin activity assay, chromogenic substrate pyroGlu-Pro-Arg-pNA, kinetic
purified recombinant human hepsin, sequence (P05981 46-417): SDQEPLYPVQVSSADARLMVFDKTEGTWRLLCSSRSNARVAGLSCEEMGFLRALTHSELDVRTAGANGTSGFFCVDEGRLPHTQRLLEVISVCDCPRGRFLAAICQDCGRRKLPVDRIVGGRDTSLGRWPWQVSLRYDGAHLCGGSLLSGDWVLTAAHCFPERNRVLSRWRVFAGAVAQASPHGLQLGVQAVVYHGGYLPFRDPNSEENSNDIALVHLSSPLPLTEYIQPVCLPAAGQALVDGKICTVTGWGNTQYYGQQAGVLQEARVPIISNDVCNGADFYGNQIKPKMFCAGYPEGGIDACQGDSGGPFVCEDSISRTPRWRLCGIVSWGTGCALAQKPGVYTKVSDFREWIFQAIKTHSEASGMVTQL

[7] = mainly to albumin; cited from earlier work

IC50 (thrombin) [µM] | Compound | cytotoxicity to HepG2 cells [1] | cytotoxicity to LNCaP cells [4] | cytotoxicity to MP-1 cells [5] | also measured
> 20 | CC(C)(Sc1cc(C(C)(C)C)c(O)c(C(C)(C)C)c1)Sc1cc(C(C)(C)C)c(O)c(C(C)(C)C)c1 [Compound 14, probucol] | limited or no cytotoxicity | limited or no cytotoxicity | limited or no cytotoxicity | attenuation of pericellular proteolytic activity (in words) ([2]; 20 and 50μM, 24 hours): did not reduce; logP [3]: ~10
> 20 | O=C1c2c(O)cccc2Cc2cccc(O)c21 [Compound 15, anthralin] | toxic | toxic | toxic | toxicity to HEK 293FT cells (HEK 293FT cells; 50μM): substantial toxicity
 | Oc1nc2cc(Cl)c(Cl)cc2nc1O [Compound 16, 2,3-dihydroxy-6,7-dichloroquinoxaline] | limited or no cytotoxicity | limited or no cytotoxicity | limited or no cytotoxicity | 
 | O=C1Nc2ccc(Cl)cc2[C@@](C#CC2CC2)(C(F)(F)F)O1 [efavirenz] |  |  |  | protein bound in plasma [7]: more than 99%
 | Cl.NCCc1ccc(S(=O)(=O)F)cc1 [PEFAbloc] |  |  |  | inhibition of hepsin proteolytic activity (in words) ([6]; 4mM PEFAbloc, 30 minutes, 0.4nM hepsin): completely inhibited

Compound | IC50 (thrombin) [µM] | cytotoxicity to HepG2 cells [1] | cytotoxicity to LNCaP cells [4] | cytotoxicity to MP-1 cells [5] | also measured
Cc1cccc(CN2CCN(C(c3ccccc3)c3ccc(Cl)cc3)CC2)c1 (stereo not shown) [Compound 13, meclizine] | > 20 | limited or no cytotoxicity | limited or no cytotoxicity | limited or no cytotoxicity | attenuation of pericellular proteolytic activity ([2]; 50μM, normalized to hepsin expression level, relative to vehicle): ~25%; IC50 (trypsin): > 20 µM; overt toxicity to HEK 293FT cells / effect on hepsin expression levels (HEK 293FT cells; 20 and 50μM): without substantially affecting hepsin expression levels or displaying overt toxicity; equilibration time dependence of hepsin inhibition [6]: significantly increased with extended equilibration time; reversibility of hepsin inhibition by dilution ([6]; inhibitor at its IC50, 1 hour at room temperature, then diluted): not reversible by dilution
